Test results published in patent US20040063696A1, “1,1-dioxo-2h-1,2-benzothiazine-3-carboxamide derivatives,method for preparing same and pharmaceutical compositions comprising same” (priority 2000, published 2004).

Tested on: aggrecan
Experiment: Expression of aggrecan in articular chondrocytes treated with IL-1 (Northern blot)
Assay type: cell-based
Settings: calf articular chondrocytes, compared with cultures treated with 10 ng/ml of IL-1
Protocol: The expression of aggrecan was analysed by Northern blot. Total RNA of cultures of calf articular chondrocytes (CAC) cultured in DMEM+10% FCS and treated with different concentrations of the test compounds, in the presence of IL-1 (10 ng/ml), were extracted, 10 μg of the total RNA were fractionated by electrophoresis on a 1% agarose gel in the presence of an MOPS-formaldehyde buffer, transferred to a nylon membrane and hybridised with a specific aggrecan cDNA probe.

Q: Which “stimulation of the expression of aggrecan” value (10^−6 M) does the source give for CC[N+](C)(CC)CCCNC(=O)C1=C(O)c2ccccc2S(=O)(=O)N1C.[I-] [Example 1, {3-[(4-Hydroxy-2-methyl-1,1-dioxo-2H-1,2-benzothiazin-3-yl)-carbonylamino]propyl}diethylmethylammonium iodide] here?
A: 150%

Q: What about the “stimulation of the expression of aggrecan” value (10^−M (so in the source)) of the same molecule?
A: 200%
